Test in all cases: Competitive isoTOP-ABPP in situ (fragment-treated cells)
What all share (type): cell-based
What all share (conditions): 200 μM, insitu, 231

Test [1] deals with T1, cysteines in MDA-MB-231 and Ramos cells (Homo sapiens, UniProt O95571).
T1 sequence (O95571 8-254): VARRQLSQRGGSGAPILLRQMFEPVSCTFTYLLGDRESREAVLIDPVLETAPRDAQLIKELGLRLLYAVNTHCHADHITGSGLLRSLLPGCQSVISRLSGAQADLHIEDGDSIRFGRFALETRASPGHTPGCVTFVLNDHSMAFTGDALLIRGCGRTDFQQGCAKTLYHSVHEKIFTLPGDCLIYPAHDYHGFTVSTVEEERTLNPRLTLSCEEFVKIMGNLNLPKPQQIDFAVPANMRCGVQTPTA

Test [2] has as its target T2, cysteines in MDA-MB-231 and Ramos cells (Homo sapiens, UniProt P42166).
T2 sequence (P42166 1-694): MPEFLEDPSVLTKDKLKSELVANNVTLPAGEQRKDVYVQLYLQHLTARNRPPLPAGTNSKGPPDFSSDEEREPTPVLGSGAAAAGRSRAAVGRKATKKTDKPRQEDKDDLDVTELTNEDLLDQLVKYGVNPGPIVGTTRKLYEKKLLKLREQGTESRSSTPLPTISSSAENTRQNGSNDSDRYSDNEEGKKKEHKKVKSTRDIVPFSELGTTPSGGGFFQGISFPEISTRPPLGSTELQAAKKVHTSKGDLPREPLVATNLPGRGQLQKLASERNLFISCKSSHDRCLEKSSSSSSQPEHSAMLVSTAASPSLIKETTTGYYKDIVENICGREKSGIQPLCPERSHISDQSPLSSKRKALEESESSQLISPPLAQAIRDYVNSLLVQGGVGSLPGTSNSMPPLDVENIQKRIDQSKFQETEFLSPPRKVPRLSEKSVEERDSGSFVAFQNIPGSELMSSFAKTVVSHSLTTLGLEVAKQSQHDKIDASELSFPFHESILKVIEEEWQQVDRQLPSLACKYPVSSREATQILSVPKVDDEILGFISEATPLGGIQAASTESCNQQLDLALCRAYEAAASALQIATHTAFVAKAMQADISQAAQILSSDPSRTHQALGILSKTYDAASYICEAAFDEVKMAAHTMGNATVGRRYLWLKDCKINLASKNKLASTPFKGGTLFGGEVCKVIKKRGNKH

The target of test [3] is T3, cysteines in MDA-MB-231 and Ramos cells (Homo sapiens, UniProt Q15233).
T3 sequence (Q15233 1-471): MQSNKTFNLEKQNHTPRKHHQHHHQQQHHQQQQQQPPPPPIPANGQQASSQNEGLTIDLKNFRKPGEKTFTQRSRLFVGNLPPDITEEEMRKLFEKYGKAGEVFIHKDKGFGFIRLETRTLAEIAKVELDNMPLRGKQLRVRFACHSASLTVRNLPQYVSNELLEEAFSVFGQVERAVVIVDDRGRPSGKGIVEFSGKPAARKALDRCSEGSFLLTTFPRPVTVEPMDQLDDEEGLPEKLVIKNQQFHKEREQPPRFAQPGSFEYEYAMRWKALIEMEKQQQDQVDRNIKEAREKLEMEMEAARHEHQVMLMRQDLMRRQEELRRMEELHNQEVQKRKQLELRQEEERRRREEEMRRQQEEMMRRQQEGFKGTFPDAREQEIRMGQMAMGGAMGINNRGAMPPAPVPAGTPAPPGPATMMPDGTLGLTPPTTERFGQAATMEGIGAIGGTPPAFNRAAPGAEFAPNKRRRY

The target of test [4] is T4, cysteines in MDA-MB-231 and Ramos cells (Homo sapiens, UniProt Q99497).
T4 sequence (Q99497 1-189): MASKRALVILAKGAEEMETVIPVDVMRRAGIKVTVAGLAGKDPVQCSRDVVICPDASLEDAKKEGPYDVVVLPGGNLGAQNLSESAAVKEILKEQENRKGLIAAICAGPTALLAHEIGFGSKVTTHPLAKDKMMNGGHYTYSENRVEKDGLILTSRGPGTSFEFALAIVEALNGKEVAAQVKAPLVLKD

The target of test [5] is cysteines in MDA-MB-231 and Ramos cells (Homo sapiens, UniProt Q9NYL2).
Sequence of cysteines in MDA-MB-231 and Ramos cells (Homo sapiens, UniProt Q9NYL2) (Q9NYL2 whole entry): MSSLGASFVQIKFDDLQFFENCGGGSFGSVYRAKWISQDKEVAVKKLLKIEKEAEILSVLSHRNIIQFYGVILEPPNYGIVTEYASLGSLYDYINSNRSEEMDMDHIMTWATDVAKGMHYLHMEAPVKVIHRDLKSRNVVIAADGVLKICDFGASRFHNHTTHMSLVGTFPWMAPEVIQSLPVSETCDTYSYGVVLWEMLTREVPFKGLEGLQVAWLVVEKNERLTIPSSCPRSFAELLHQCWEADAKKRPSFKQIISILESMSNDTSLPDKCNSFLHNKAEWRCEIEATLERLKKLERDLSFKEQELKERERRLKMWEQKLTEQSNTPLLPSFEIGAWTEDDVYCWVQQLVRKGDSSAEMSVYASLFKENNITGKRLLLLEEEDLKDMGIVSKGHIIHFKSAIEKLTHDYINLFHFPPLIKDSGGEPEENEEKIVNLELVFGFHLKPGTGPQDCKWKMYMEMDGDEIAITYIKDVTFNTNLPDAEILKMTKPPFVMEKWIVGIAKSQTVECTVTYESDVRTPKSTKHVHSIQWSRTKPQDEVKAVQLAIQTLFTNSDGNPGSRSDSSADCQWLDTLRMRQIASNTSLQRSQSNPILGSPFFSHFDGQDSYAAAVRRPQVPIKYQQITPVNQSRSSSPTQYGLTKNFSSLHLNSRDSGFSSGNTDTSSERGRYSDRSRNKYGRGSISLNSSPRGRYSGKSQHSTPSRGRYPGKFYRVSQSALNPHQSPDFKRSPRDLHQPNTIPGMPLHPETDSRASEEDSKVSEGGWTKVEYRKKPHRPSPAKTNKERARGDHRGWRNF
The target in test [6] is T5, cysteines in MDA-MB-231 and Ramos cells (Homo sapiens, UniProt Q9UKF6).
T5 sequence (Q9UKF6 1-684): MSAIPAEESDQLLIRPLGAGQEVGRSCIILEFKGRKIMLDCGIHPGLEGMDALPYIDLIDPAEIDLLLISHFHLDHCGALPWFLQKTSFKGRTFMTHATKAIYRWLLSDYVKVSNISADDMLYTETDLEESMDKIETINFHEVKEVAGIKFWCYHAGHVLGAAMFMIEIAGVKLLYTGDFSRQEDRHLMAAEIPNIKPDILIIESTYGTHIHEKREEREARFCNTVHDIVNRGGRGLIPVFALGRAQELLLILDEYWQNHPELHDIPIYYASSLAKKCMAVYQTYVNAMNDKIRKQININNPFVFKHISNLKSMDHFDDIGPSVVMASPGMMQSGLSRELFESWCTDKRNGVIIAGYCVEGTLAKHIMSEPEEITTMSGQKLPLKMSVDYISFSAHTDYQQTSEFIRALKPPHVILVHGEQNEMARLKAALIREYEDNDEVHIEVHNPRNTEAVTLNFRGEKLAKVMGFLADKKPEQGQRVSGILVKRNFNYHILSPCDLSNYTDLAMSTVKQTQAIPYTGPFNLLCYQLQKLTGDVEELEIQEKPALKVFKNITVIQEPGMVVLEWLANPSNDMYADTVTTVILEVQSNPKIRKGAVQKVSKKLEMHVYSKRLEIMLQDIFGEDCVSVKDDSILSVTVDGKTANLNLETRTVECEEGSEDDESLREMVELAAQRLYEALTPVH

Each structure is given as a SMILES string.

As to `CC(C)CCOCCNC(=O)CCl` [compound 27], in test [1], the “isoTOP-ABPP ratio O95571_C170” value is on record as 1.1. In test [2], the “isoTOP-ABPP ratio P42166_C341” value turned out to be 0.6 and the “isoTOP-ABPP ratio P42166_C561” value stood at 0.8. Also, in test [3], the “isoTOP-ABPP ratio Q15233_C145” value turned out to be 1.2. Moreover, in test [4], the “isoTOP-ABPP ratio Q99497_C106” value was 0.9. Moreover, the “isoTOP-ABPP ratio Q9NYL2_C22” value in test [5] came out at 0.7. For the same molecule, in test [6], the “isoTOP-ABPP ratio Q9UKF6_C498” value was found to be 1.5.
For `Cc1ccc(C=C(C#N)C(=O)NCCN2CCOCC2)cc1` [compound 41], the “isoTOP-ABPP ratio O95571_C170” value in test [1] is given as 1.1. Further, in test [2], the “isoTOP-ABPP ratio P42166_C341” value came to 0.5 and the “isoTOP-ABPP ratio P42166_C561” value worked out at 0.7. Also, in test [3], the “isoTOP-ABPP ratio Q15233_C145” value is 1.1. The “isoTOP-ABPP ratio Q99497_C106” value in test [4] was 0.6. Moreover, in test [5], the “isoTOP-ABPP ratio Q9NYL2_C22” value was 0.6. Moreover, the “isoTOP-ABPP ratio Q9UKF6_C498” value in test [6] turned out to be 1.0.
`CC1CCc2ccccc2N1C(=O)CCl` (stereo not drawn) [compound 45]: the “isoTOP-ABPP ratio O95571_C170” value in test [1] came out at 3.1. Further, in test [2], the “isoTOP-ABPP ratio P42166_C561” value was found to be 20.0 and the “isoTOP-ABPP ratio P42166_C684” value was determined as 6.8. The “isoTOP-ABPP ratio Q15233_C145” value in test [3] is given as 3.7. Besides, the “isoTOP-ABPP ratio Q99497_C106” value in test [4] is recorded as 20.0. Besides, in test [5], the “isoTOP-ABPP ratio Q9NYL2_C22” value is listed as 2.3. Moreover, the “isoTOP-ABPP ratio Q9UKF6_C498” value in test [6] is given as 20.0.

Values taken from patent publication US10670605B2, “Cysteine reactive probes and uses thereof” (The Scripps Research Institute, priority 2015, dated 2020).
